Source: patent US20230331674A1 (priority 2020, published 2023)

Assays:
HepG2 cells = assay: Metabolic activity assay (cytotoxicity) in HepG2 cells; conditions: 24 h
Description: HepG2 cells (1×10^4 cells/well) were treated for 24 h with the appropriate concentrations of the compounds of interest or the corresponding vehicle (control cells), in triplicates in 96-well plates. The metabolic activities were determined using the CellTiter 96 Aqueous One Solution Cell Proliferation Assay (Promega, WI/USA), according to the manufacturer instructions.

[1] = Metabolic stability in cryopreserved hepatocytes; format: in vitro ADME; conditions: both sexes, pH 7.3, human hepatocytes
Description: Cryopreserved hepatocytes (mixed gender and pool of 10 or more) were thawed, washed, and resuspended in Krebs-Heinslet buffer (pH 7.3). […] The reaction was stopped by adding acetonitrile into the incubation mixture. Samples were then mixed, transferred completely to another 96-well plate, and centrifuged. Supernatants were used for HPLC-MS/MS analysis. As reference substances, four compounds were tested in each assay. Propranolol is relatively stable, whereas flurazepam, naloxone and 7-hydroxy-4-trifluoromethylcoumarin (HFC) are readily metabolized in human hepatocytes. In the HPLC-MS/MS analysis peak areas corresponding to the test compounds were recorded. Metabolic stability, expressed as percentage of the parent compound remaining, was calculated by comparing the peak area of the compound at the time point relative to that at time 0. The half-life (t1/2) was estimated from the slope of the initial linear range of the logarithmic curve of the compound remaining (%) versus time, assuming first order kinetics. The apparent intrinsic clearance (Clint in μL/min/million cells) was calculated from the half-life according to the following formula:
Clint=0.693/(t1/2×million cells/μL) (5).

[2] = Plasma protein binding, equilibrium dialysis; format: in vitro ADME; conditions: pH 7.4, human plasma, 37° C.
Description: The equilibrium dialysis technique was used to separate the fraction of the bound to human plasma protein. The assay was performed in a 96-well format in a dialysis block constructed from Teflon to minimize the unspecific binding (Banker M. J. et al. J. Pharm. Sci. 2003, 92, 967-974). Plasma from human was used as the default protein containing matrix. […] Acebutolol, quinidine and warfarin were tested in each assay as reference compounds, which yield protein binding that represent low, medium and high bindings to human plasma proteins, respectively. The dialysate compartment was loaded with the phosphate buffered saline (PBS, pH 7.4), and the sample side was loaded with equal volume of the spiked protein matrix. The dialysis plate was then sealed and incubated at 37° C. for 4 h. A control sample (n=2) was prepared from the spiked protein matrix in the same manner as the assay sample (without dialysis). The control sample served as the basis for the recovery determination. After the incubation, samples were taken from each compartment, diluted with phosphate buffer followed by addition of acetonitrile and centrifugation. The supernatants were then used for HPLC-MS/MS analysis using selected reaction monitoring. […]
The recovery determination serves as an indicator of reliability of the calculated protein binding value. […]

Plasma stability = format: in vitro ADME; conditions: human, 37° C., 2 h incubation, read-out: In vitro half-life in human plasma
Description: Propoxycaine and propantheline were tested as reference compounds simultaneously in each assay. The incubation was performed in a 37° C. water bath for 2 h. An aliquot of the incubation mixture was transferred to acetonitrile at 0, 0.5, 1, 1.5 and 2 h, respectively. Samples were then mixed and centrifuged. Supernatants were used for HPLC-MS/MS analysis using selected reaction monitoring, and peak areas were recorded for each analyte. The HPLC conditions consisted of a binary LC pump with autosampler, a C18 column (2×20 mm), and gradient elution. The area of precursor compound remaining after each time points relative to the amount remaining at time zero, expressed as percent, is calculated. Subsequently, the half-life (t1/2) was estimated from the slope of the initial linear range of the logarithmic curve of the compound remaining (%) versus time, assuming first order kinetics.

in vitro = conditions: human, Caco-2
Description: (§1) They were grown on Transwell® culture inserts with a polycarbonate membrane (diameter, 12 mm; pore size, 0.4 μm). 50,000 cells/filter membranes were used for seeding and the medium was changed every two days. At day 18, transepithelial electrical resistance (TEER) was measured for each filter with Caco-2 cell monolayers. […] The samples were acidified by dilution with the same volume of 0.01 M HCl before fluorescence measurements.
(§2) Ringer buffer with 10 mM d-glucose or 10 mM mannitol on apical and basolateral side of the tissue, respectively, was used as an incubation saline. […] The experiment started by the addition of stock solutions of (±)-N-((1-benzylpiperidin-3-yl)methyl)-N-(2-methoxyethyl)naphthalene-2-sulfonamide hydrochloride and fluorescein in the donor compartment to provide final 100 μM donor concentration of (±)-N-((1-benzylpiperidin-3-yl)methyl)-N-(2-methoxyethyl)naphthalene-2-sulfonamide and 20 μM fluorescein. The stock solutions were added either to the apical or to the basolateral compartment to obtain bidirectional permeability measurements. Six samples were withdrawn in 20 min intervals. Each time 300 μl was taken from the 1500 μL basolateral acceptor compartment and 100 μL from the 500 μL apical acceptor compartment. These volumes were immediately replaced by the appropriate fresh incubation saline. The concentrations of (±)-N-((1-benzylpiperidin-3-yl)methyl)-N-(2-methoxyethyl)naphthalene-2-sulfonamide in the samples were determined by HPLC-UV immediately after the experiment.

Caco-2 cell monolayers = assay: in vitro
Description: as §1, §2

SH-SY5Y cells = assay: Cell viability assay (MTS) in SH-SY5Y cells; conditions: 48 h
Description: Prior to cell treatments, complete medium was replaced with reduced-serum medium (i.e., with 2% fetal bovine serum). (±)-N-((1-benzylpiperidin-3-yl)methyl)-N-(2-methoxyethyl)naphthalene-2-sulfonamide hydrochloride was prepared as a stock solution of 10 mM in DMSO and was used at concentrations of 1 μM to 100 μM.
SH—SY5Y cells were seeded in 96-well plates (2×10^4/well) and assessed in the MTS ([3-(4,5-dimethylthiazol-2-yl)-5-(3-carboxymethoxyphenyl)-2-(4-sulfophenyl)-2H-tetrazolium, inner salt) assay for their response to treatments with (±)-N-((1-benzylpiperidin-3-yl)methyl)-N-(2-methoxyethyl)naphthalene-2-sulfonamide hydrochloride. The cells were treated as described above, and cell viability was assessed after 48 h using the CellTiter 96 Aqueous One Solution Cell Proliferation Assay (Promega, Madison, WI, USA), according to the manufacturer instructions. Absorbance was measured with an automatic microplate reader (Tecan Safire2, Switzerland) at a wavelength of 492 nm. The data are presented as percentages of the control (DMSO).

[3] = test system: SH-SY5Y cells treated with Aβ(1-42); assay: Neuroprotective effect against Aβ(1-42) cytotoxicity, propidium iodide flow cytometry; format: cell-based, human; conditions: 5 μM Aβ(1-42), 48 h
Description: SH—SY5Y cells were seeded into a 24-well culture plate (1.2×10^5/well) and next day, treated as described above. After 48 h treatment, cells were washed with pre-warmed PBS and further stained with PI solution (30 μM) for 15 min at 37° C. Cells were then analyzed for cytotoxicity by flow cytometry on FACS Calibur (BD Bioscience, San Jose, CA, USA). The percentage of PI positive cells (PI^pos) was evaluated using FlowJo software (Ashland, OR, USA) and results are presented as a relative fold increase of PI^pos corresponding vehicle treatment (DMSO control).

Work on COCCN(CC1CCCN(Cc2ccccc2)C1)S(=O)(=O)c1ccc2ccccc2c1 (racemic) [(±)-N-((1-benzylpiperidin-3-yl)methyl)-N-(2-methoxyethyl)naphthalene-2-sulfonamide] yielded an LD50 (HepG2 cells) of 58.67 µM, a half-life at 1 μM ([1]; 0.7 million viable cells per mL, read-out: In vitro half-life in cryopreserved hepatocytes) of 54 min and a hepatocyte CLint at 1 μM ([1]; read-out: Hepatocyte clearance (Clint)) of 18.2 µL/min/1e6 cells. For the same compound, the fraction unbound at 4 h, 10 μM [2] was 0.04, the half-life at 1 μM (Plasma stability) was > 120 min and the Papp A→B at 120 min, 100 μM (in vitro) was 30 ± 10.7 ×10⁻⁶ cm/s. For the same compound, the Papp B→A at 120 min, 100 μM (in vitro) was 29.1 ± 2.9 ×10⁻⁶ cm/s, the “Permeability class according to the biopharmaceutical classification system” value (Caco-2 cell monolayers) was “high” and the LD50 (SH-SY5Y cells) was 31.40 µM. For the same compound, the “Neuroprotective effect against Aβ(1-42) toxicity” value ([3]; compound 1-10 μM) was “clear dose-response neuroprotective effect” and the “Effect on Aβ(1-42)-induced cell death” value ([3]; compound at 10 μM) was “reversed Aβ(1-42)-induced cell death”.
